The target in one data set is Acetylcholinesterase (Electrophorus electricus, UniProt O42275).
Another data set concerns the target Cholinesterase (Equus caballus, UniProt P81908).
The nature of a further data set: in vitro. The following applies: PAMPA. (In general: In PAMPA a lipid-coated filter parts donor from acceptor wells.)

The record followed here is ChEMBL document CHEMBL1828584, “Hybrids of oxoisoaporphine-tacrine congeners: novel acetylcholinesterase and acetylcholinesterase-induced β-amyloid aggregation inhibitors” (Eur J Med Chem, 2011).

Description for Acetylcholinesterase: Inhibition of Electrophorus electricus AChE using acetylthiocholine chloride as substrate after 15 mins by Ellman's method
Description for in vitro: Permeability of the compound by PAMPA

By IC50 is commonly meant the midpoint of a concentration-inhibition curve. A high value points to lower potency. For orientation: Papp means the rate of passage across a membrane or cell layer, normalised by area and donor concentration. High values mean ready permeation, low ones poor permeation. Take `O=C(CNCCNc1c2c(nc3ccccc13)CCCCC2)Nc1ccc2c(c1)C(=O)c1cccc3ccnc-2c13`: the half-inhibitory concentration (IC50) against Acetylcholinesterase came out at 61 nM; against Cholinesterase, 211 nM. In “in vitro”, the Papp is 4 ×10⁻⁶ cm/s.
For `O=C(CCNCCCNc1c2c(nc3ccccc13)CCC2)Nc1ccc2c(c1)C(=O)c1cccc3ccnc-2c13`, the figures for the IC50 against Acetylcholinesterase and at Cholinesterase were 411 nM and 399 nM, respectively. This compound also yielded a Papp in “in vitro” of 4.9 ×10⁻⁶ cm/s.
Taken in the same sequence, the figures for `O=C(CCNCCCCNc1c2c(nc3ccccc13)CCCC2)Nc1ccc2c(c1)C(=O)c1cccc3ccnc-2c13` were 182 nM, 288 nM and 2.1 ×10⁻⁶ cm/s.
As to `O=C(CCNCCCCNc1c2c(nc3ccccc13)CCC2)Nc1ccc2c(c1)C(=O)c1cccc3ccnc-2c13`, the IC50 at Acetylcholinesterase is 910 nM; at Cholinesterase it was 199 nM. The compound further had a Papp in the data set “in vitro” of 2.4 ×10⁻⁶ cm/s.
Consider `O=C(CCNCCNc1c2c(nc3ccccc13)CCCC2)Nc1ccc2c(c1)C(=O)c1cccc3ccnc-2c13`, for which the results for the IC50 against Acetylcholinesterase and on Cholinesterase were 3.4 nM and 110 nM, respectively. The compound further gave an apparent permeability (Papp) in the data set “in vitro” of 2.6 ×10⁻⁶ cm/s.
Taken in the same sequence, the figures for `O=C(CNCCNc1c2c(nc3ccccc13)CCCC2)Nc1ccc2c(c1)C(=O)c1cccc3ccnc-2c13` were 41 nM, 433 nM and 4.8 ×10⁻⁶ cm/s.
The matching figures for `O=C(CCNCCCNc1c2c(nc3ccccc13)CCCCC2)Nc1ccc2c(c1)C(=O)c1cccc3ccnc-2c13`: 260 nM, 21.1 nM and 8.9 ×10⁻⁶ cm/s.
On to `O=C(CCNCCCNc1c2c(nc3ccccc13)CCCC2)Nc1ccc2c(c1)C(=O)c1cccc3ccnc-2c13`, for which the IC50 was found to be 57.1 nM against Acetylcholinesterase and 199 nM on Cholinesterase. In “in vitro”, this compound yielded an apparent permeability coefficient (Papp) of 3.3 ×10⁻⁶ cm/s.
The matching figures for `O=C(CNCCNc1c2c(nc3ccccc13)CCC2)Nc1ccc2c(c1)C(=O)c1cccc3ccnc-2c13`: 513 nM, 243 nM and 4.6 ×10⁻⁶ cm/s.
Consider `O=C(CCNCCNc1c2c(nc3ccccc13)CCCCC2)Nc1ccc2c(c1)C(=O)c1cccc3ccnc-2c13`, for which the IC50 is 51.7 nM against Acetylcholinesterase and 65 nM against Cholinesterase. For the same compound, the apparent permeability coefficient (Papp) in “in vitro” stood at 7.9 ×10⁻⁶ cm/s.
Take `O=C(CCNCCNc1c2c(nc3ccccc13)CCC2)Nc1ccc2c(c1)C(=O)c1cccc3ccnc-2c13`: the IC50 is 422 nM on Acetylcholinesterase and 1760 nM against Cholinesterase. Besides, in “in vitro”, the Papp turned out to be 1.9 ×10⁻⁶ cm/s.
As for `Nc1ccc2c(c1)C(=O)c1cccc3ccnc-2c13`, the IC50 at Acetylcholinesterase and at Cholinesterase was > 100000 nM each time.
As to `O=C(CCNCCCCNc1c2c(nc3ccccc13)CCCCC2)Nc1ccc2c(c1)C(=O)c1cccc3ccnc-2c13`, the IC50 came to 745 nM against Acetylcholinesterase and 150 nM against Cholinesterase. The apparent permeability (Papp) in “in vitro” stood at 1.1 ×10⁻⁶ cm/s.
